In patent US20080220416A1, “Compositions for Inhibiting Cell Growth and Inducing Apoptosis in Cancer Cells and Methods of Use Thereof” (THE BOARD OF TRUSTEES OF THE UNIVERSITY OF ILLINOI, priority 2004, published 2008):
Square brackets hold non-standard residues; d marks the D form. Peptide text beside a SMILES is read from it. * marks the point of attachment. Nle = CCCC[C@H](N)C(=O)O; Cbz = O=C(OCc1ccccc1)*

Tests used:
[1] = test system: T47D:A18 breast cancer cells; test: Cytotoxicity assay in T47D:A18 breast cancer cells; assay type: cell-based; details: T47D:A18 (p53 wild-type, ERα-positive); 48 h; read-out: IC50, cell growth inhibition
Protocol: (§1) Cytotoxicity and growth of transfected cells were estimated by a standard assay used for cancer drug screening, through the total amount of TCA-precipitated cell proteins after drug treatment (Likhitwitayawuid, K et al., 1993, J Nat Prod 56:30-38): 200 μl of cell suspension (10^5 cells/ml) were added to each well in a 96-well plate. After incubation at, 37° C., in 5% CO2 (30 minutes to 72 hours depending on the time course chosen), 50 μl 50% trichloroacetic acid was added to each well. After incubation at 4° C. for 1 hour, precipitates were washed with water 4-5 times and air dried overnight. One hundred μl of SRB solution (0.4% sulforhodamine B in 1% acetic acid, filtered before use) was added to each well for 30 minutes. Wells were washed with 1% acetic acid 4-5 times and air dried. Two hundred μl 10 mM Tris base was added to each well. Plates were shaken for 5-10 minutes and OD at 490 nm (OD490) was recorded via ELISA reader. To assay matrix invasion, 300 μl of cell suspension (10^6 cells/mL in serum-free medium) were added to invasion inserts (BioCoat Matrigel Invasion Chambers, Becton Dickinson, Bedford, Mass.) and incubated for 22 hours at 37° C., 5% CO2. Cells were stained with 0.9% crystal violet in 10% ethanol for 20 minutes. […] After removal of the non-invading cells from the interior of the inserts, stained invading cells were lysed in 10% acetic acid and OD595 was determined. […]

[2] = test system: T47D:C42 breast cancer cells; test: Cytotoxicity assay in T47D:C42 breast cancer cells; assay type: cell-based; details: T47D:C:4:2; T47D:C42 (p53 wild-type, ERα-negative); 48 h; read-out: IC50, cell growth inhibition
Protocol: as §1

[3] = test system: PC-3 prostate cells; test: z-Leu-Leu-Nle-CHO on NOXA and apoptosis in PC-3 prostate cells; assay type: cell-based; details: 10 μM
[4] = test system: CaSki cells; test: LY411,575 combinations in CaSki cells, growth inhibition and isobologram analysis; assay type: cell-based, human; details: CaSki
Protocol: To evaluate the possibility that inhibition of Notch signaling may sensitize advanced cervical cancers to the effect of cisplatin chemotherapy because Notch-1 protects these cells from apoptosis through the AKT and NF-κB pathways, a non-peptide, benzodiazepine gamma-secretase inhibitor, LY411,575 (Wong et al., 2004, J Biol. Chem. 279:12876-82) was tested in combination with a AKT inhibitor (AKT inhibitor I) or a proteasome inhibitor (MG-132) for effects on cell growth. The latter class of drugs is thought to act primarily by preventing NF-KB activation (Adams, J, 2002, Curr Opin Oncol 14:628-634; Richardson, P, 2003, Cancer Treat Rev 29 Suppl 1:33-39) caused by proteasome-mediated degradation of IκB.
To determine whether LY411,575 potentiates the effect of AKT inhibitor I or MG-132, CaSki cells were treated with (a) LY411,575 (6.25 μM to 50 μM) and AKT inhibitor 1 (0.5 μM to 75 μM), or (b) LY411,575 (1.5 μM to 200 μM) and MG-132 (0.05 μM to 0.2). Following the drug treatment, the cells were tested for growth inhibition as described above. LY411,575 was synthesized according to methods well known in the art (e.g., see WO-09828268, which is incorporated by reference), and AKT inhibitor I and MG-132 were purchased from Calbiochem.
The IC50 values of LY411,575 in the presence of various concentrations of AKT inhibitor I or MG-132 were measured. […]

[5] = test system: Notch-1; test: Notch-1 siRNA in CaSki cells, Notch-1 and Notch-4 Western blot; assay type: cell-based, human
Protocol: The human papilloma virus (HPV)-positive human cervical cancer cell line CaSki was obtained from ATCC (Rockville, Md.) and cultured in DMEM medium with 10% FBS. Double-stranded synthetic 21-mer RNA oligonucleotides (siRNAs) were purchased from Dharmacon (Lafayette, Colo.). […] Sequence specificity was determined by BLAST searches for the uniqueness. Transfection of CaSki human cervical cancer cells with siRNAs (200 nM siRNA oligos/60 mm dish) was performed by using Oligofectamine Transfection Reagents (InVitrogen) according to manufacturer's instructions.
At 24 and 48 hours after transfection with Notch-1 siRNA or scrambled control siRNA, the CaSki cells were assayed for Notch-1 and Notch-4 expression by Western blotting. Immunoblotting was performed using antibodies to Notch-1 (C-20), and Notch-4 (H-225) from Santa Cruz Biotechnology (Santa Cruz, Calif.). Secondary anti-goat, anti-mouse, anti-rabbit and anti-rat antibodies (IgG-HR1) were purchased from Vector Laboratories (Burlingame, Calif.), Santa Cruz Biotechnology and Amersham Biosciences. For Western blot analysis, equal amounts of protein extracted from each sample (30 μg) were loaded into pre-cast 7% NuPAGE Tris-acetate gels or 4-12% NuPAGE Bis-tris gels (Invitrogen). Proteins were separated by SDS-PAGE and transferred to polyvinylidene difluoride membranes (Bio-Rad, Hercules, Calif.) using Invitrogen's buffering system. […]

## CCCC[C@@H](C=O)NC(=O)[C@H](CC(C)C)NC(=O)[C@H](CC(C)C)NC(=O)OCc1ccccc1 [z-Leu-Leu-Nle-CHO, N-benzyloxycarbonyl-leucyl-leucyl-norleucinal] (Cbz-Leu-Leu-[Nle]-aldehyde)
[1]
  IC50: 570 nM
[2]
  IC50: 380 nM
[3]; PC-3, p53 null
  NOXA expression: induced expression of NOXA
[3]; PC-3, after 24 hrs, data not shown
  dead cells: > 50%

## CC(C)C[C@@H](C=O)NC(=O)[C@H](CC(C)C)NC(=O)[C@H](CC(C)C)NC(=O)OCc1ccccc1 [MG-132, benzoxycarbonyl-Leucyl-Leucyl-Leucyl-aldehyde] (Cbz-Leu-Leu-Leu-aldehyde)
[4]
  combination with LY411,575 in cytotoxicity assays / isobologram: striking synergism

## 5′-AAGTGTCTGAGGCCAGCAAGA-3′ [Notch-1 siRNA]
[5]; 200 nM siRNA, 24 and 48 hours after transfection
  Notch-1 signaling: effective in genetically inhibiting Notch-1 signaling
[5]; data not shown
  Notch-4 levels: did not effect levels of Notch-4
